Measurements published in patent US20060223874A1, “Heterocyclic reverse transcriptase inhibitors” (Roche Palo Alto LLC, priority 2005, published 2006).

Columns and labels:
Wild Type HIV-RT = Wild Type HIV-RT (Human immunodeficiency virus type 1 group M subtype B, UniProt P03366); assay: HIV Reverse Transcriptase Assay: Inhibitor IC50 Determination; format: biochemical; conditions: purified recombinant HIV-1 RT, poly(rA)/oligo(dT)16 template-primer, 37° C. for 30 min
Method: HIV Reverse Transcriptase Assay: Inhibitor IC50 Determination
HIV-1 RT assay was carried out in 96-well Millipore MultiScreen MADVNOB50 plates using purified recombinant enzyme and a poly(rA)/oligo(dT)16 template-primer in a total volume of 50 μL. The assay constituents were 50 mM Tris/HCl, 50 mM NaCl, 1 mM EDTA, 6 mM MgCl2, 5 μM dTTP, 0.15 μCi [^3H] dTTP, 5 μg/ml poly (rA) pre annealed to 2.5 μg/ml oligo (dT)16 and a range of inhibitor concentrations in a final concentration of 10% DMSO. Reactions were initiated by adding 4 nM HIV-1 RT and after incubation at 37° C. for 30 min, they were stopped by the addition of 50 μl ice cold 20% TCA and allowed to precipitate at 4° C. for 30 min. The precipitates were collected by applying vacuum to the plate and sequentially washing with 3×200 μl of 10% TCA and 2×200 μl 70% ethanol. Finally, the plates were dried and radioactivity counted in a Packard TopCounter after the addition of 25 μl scintillation fluid per well. IC50's were calculated by plotting % inhibition versus log10 inhibitor concentrations. (TABLE 2)

SMILES	melting point [°C]	IC50 (Wild Type HIV-RT) [nM]
COc1ccc(Cc2n[nH]c(=O)n2C)c(F)c1Oc1cc(Cl)cc(C#N)c1 [Compound I-1, 3-chloro-5-[2-fluoro-6-methoxy-3-(4-methyl-5-oxo-4,5-dihydro-1H-[1,2,4]triazol-3-ylmethyl)-phenoxy]-benzonitrile]	219.1 to 220.1	45.6
COc1ccc(Cc2n[nH]c(=O)n2C)c(F)c1Oc1cc(C#N)cc(C(F)F)c1 [Compound I-2, 3-Difluoromethyl-5-[2-fluoro-6-methoxy-3-(4-methyl-5-oxo-4,5-dihydro-1H-[1,2,4]triazol-3-ylmethyl)-phenoxy]-benzonitrile]	–	12.9
